Test results from ChEMBL document CHEMBL4190372, “Discovery of a Novel Oral Glucocorticoid Receptor Modulator (AZD9567) with Improved Side Effect Profile” (J Med Chem, 2018).
Values after ≈ are worked out from the molar mass of the structure shown.

Legend:
[1] = Drug metabolism in human hepatocytes treated with N-((1R,2S)-1-(3-chloro-4-cyanophenoxy)-1-(6-methoxypyridin-3-yl)propan-2-yl)-2,2-difluoropropanamide; assay type: ADME, cell-based, Hepatocyte
[2] = Drug metabolism in rat hepatocytes treated with N-((1R,2S)-1-(3-chloro-4-cyanophenoxy)-1-(6-methoxypyridin-3-yl)propan-2-yl)-2,2-difluoropropanamide; assay type: ADME, cell-based, Hepatocyte
[3] = Aqueous solubility of the compound; assay type: physicochemical; details: aqueous; read-out: solubility
[4] = target: T1, Estrogen receptor (Homo sapiens, UniProt P03372); assay: Binding affinity to human ERalpha expressed in Sf9 cells by fluoligand binding-based fluorescence polarization method
T1 sequence (P03372 whole entry): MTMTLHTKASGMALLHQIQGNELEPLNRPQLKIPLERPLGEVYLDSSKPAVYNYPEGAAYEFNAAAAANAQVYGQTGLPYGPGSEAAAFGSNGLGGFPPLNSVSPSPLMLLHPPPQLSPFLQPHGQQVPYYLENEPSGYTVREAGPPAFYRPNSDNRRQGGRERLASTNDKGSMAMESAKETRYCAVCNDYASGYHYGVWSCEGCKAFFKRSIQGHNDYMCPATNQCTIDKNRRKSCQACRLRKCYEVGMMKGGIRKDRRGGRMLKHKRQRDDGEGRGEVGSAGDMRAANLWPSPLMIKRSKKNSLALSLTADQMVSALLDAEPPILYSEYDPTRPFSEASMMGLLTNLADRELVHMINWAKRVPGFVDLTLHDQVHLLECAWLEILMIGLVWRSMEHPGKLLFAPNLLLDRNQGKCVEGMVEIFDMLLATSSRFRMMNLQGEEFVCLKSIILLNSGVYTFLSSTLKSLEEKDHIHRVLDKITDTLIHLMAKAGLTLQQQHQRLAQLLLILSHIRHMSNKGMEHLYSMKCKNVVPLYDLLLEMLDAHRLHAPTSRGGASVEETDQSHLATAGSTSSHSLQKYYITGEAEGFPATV

[5] = Volume of distribution at steady state in Han-Wistar rat at 0.9 mg/kg, iv; assay type: ADME, organism-based; details: in vivo, read-out: Vdss
[6] = test system: Rattus norvegicus; assay: Antiinflammatory activity in streptococcal cell wall reactivation Lewis rat model assessed as reduction of joint swelling at 20 mg/kg administered once daily for 8 days by oral gavage starting 1 day prior to streptococcal cell wall challenge measured during 6 days post challenge relative to control; assay type: functional; parameters: scale not given: the % may be the effect or the level left
[7] = Tmax in Han-Wistar rat at 3.5 mg/kg, po; assay type: ADME, organism-based; details: in vivo
[8] = test system: Rattus norvegicus; assay: Dose normalized Cmax in Han-Wistar rat at 3.5 mg/kg, po; assay type: ADME, organism-based; details: in vivo
[9] = Terminal half life in Han-Wistar rat at 3.5 mg/kg, po; assay type: ADME, organism-based; details: in vivo, read-out: beta t1/2 (converted)
[10] = target: T2, Glucocorticoid receptor (Homo sapiens, UniProt P04150); details: hepatocytes, 18 h
T2 sequence (P04150 whole entry): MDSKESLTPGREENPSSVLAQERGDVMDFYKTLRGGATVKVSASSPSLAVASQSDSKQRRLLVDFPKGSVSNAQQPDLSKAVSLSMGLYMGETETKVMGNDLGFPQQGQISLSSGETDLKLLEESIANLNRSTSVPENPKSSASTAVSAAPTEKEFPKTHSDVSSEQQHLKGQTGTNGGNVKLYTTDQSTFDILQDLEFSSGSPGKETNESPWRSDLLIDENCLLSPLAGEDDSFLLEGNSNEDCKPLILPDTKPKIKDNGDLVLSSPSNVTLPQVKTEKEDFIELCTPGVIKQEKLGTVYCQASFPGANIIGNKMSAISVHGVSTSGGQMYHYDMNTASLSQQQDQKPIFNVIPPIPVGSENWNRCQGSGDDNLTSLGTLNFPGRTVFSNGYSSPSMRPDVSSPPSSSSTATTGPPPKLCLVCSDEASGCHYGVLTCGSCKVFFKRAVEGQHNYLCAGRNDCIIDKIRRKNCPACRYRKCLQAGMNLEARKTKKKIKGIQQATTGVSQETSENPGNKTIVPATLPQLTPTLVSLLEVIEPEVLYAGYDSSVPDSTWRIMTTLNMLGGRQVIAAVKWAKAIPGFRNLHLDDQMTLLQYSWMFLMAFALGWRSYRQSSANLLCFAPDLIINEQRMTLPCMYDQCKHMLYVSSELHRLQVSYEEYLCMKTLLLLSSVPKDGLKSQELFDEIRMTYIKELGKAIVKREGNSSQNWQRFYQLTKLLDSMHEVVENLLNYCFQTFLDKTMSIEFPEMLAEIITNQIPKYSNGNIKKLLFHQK
Description: Transactivation of GR in cryopreserved human primary hepatocytes assessed as upregulation of TAT mRNA expression level after 18 hrs by RT-qPCR analysis

[11] = target: T3, Glucocorticoid receptor (Homo sapiens) (UniProt P04150)
T3 sequence (whole entry): T2 sequence (P04150 whole entry)
Description: Transrepression of GR in cryopreserved human fetal osteoblasts assessed as inhibition of OPG mRNA expression after 4 hrs by RT-qPCR analysis

[12] = test system: Rattus norvegicus; assay: Antiinflammatory activity in streptococcal cell wall reactivation Lewis rat model assessed as reduction of joint swelling at 5 mg/kg administered once daily for 8 days by oral gavage starting 1 day prior to streptococcal cell wall challenge measured during 6 days post challenge relative to control; assay type: functional; parameters: scale not given: the % may be the effect or the level left
[13] = Terminal half life in Han-Wistar rat at 0.9 mg/kg, iv; assay type: ADME, organism-based; details: in vivo, read-out: beta t1/2 (converted)
[14] = Clearance in Han-Wistar rat at 0.9 mg/kg, iv; assay type: ADME, organism-based; details: in vivo
[15] = target: T4, Mineralocorticoid receptor (Homo sapiens, UniProt P08235); assay: Displacement of [3H]-aldosterone from human mineralocorticoid receptor LBD (729 to 984 residues) after 1 hr by scintillation proximity assay
T4 sequence (P08235 whole entry): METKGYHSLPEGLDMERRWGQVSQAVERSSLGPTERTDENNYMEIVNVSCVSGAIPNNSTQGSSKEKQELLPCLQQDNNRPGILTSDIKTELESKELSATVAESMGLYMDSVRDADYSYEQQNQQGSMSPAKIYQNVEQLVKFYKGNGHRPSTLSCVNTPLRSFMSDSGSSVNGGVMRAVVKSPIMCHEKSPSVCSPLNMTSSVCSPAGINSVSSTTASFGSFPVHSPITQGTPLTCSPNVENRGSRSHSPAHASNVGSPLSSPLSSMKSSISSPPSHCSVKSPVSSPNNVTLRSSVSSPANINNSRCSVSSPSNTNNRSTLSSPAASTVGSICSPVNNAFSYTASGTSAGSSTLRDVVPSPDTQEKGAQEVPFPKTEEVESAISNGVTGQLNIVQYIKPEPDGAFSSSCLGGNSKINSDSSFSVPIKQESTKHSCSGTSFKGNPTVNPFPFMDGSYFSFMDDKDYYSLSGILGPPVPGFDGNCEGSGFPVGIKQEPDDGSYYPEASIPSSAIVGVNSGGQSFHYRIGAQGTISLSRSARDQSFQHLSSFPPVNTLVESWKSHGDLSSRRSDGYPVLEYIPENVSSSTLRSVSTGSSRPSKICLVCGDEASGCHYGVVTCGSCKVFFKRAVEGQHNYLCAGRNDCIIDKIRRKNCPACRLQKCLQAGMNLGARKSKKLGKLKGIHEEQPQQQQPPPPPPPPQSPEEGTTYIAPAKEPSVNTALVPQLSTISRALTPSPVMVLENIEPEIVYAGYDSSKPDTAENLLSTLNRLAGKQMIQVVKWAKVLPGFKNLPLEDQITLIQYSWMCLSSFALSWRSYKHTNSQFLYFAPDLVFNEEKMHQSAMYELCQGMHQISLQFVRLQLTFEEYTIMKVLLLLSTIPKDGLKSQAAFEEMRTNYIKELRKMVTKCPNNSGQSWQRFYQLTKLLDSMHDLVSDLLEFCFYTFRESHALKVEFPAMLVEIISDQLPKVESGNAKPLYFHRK

[16] = target: Estrogen receptor beta (Homo sapiens, UniProt Q92731); assay: Binding affinity to human ERbeta expressed in Sf9 cells by fluoligand binding-based fluorescence polarization method
[17] = test system: Rattus norvegicus; assay: Dose normalized AUC (0 to infinity) in Han-Wistar rat at 3.5 mg/kg, po; assay type: ADME, organism-based; details: in vivo

Chain of Estrogen receptor beta (Q92731 whole entry): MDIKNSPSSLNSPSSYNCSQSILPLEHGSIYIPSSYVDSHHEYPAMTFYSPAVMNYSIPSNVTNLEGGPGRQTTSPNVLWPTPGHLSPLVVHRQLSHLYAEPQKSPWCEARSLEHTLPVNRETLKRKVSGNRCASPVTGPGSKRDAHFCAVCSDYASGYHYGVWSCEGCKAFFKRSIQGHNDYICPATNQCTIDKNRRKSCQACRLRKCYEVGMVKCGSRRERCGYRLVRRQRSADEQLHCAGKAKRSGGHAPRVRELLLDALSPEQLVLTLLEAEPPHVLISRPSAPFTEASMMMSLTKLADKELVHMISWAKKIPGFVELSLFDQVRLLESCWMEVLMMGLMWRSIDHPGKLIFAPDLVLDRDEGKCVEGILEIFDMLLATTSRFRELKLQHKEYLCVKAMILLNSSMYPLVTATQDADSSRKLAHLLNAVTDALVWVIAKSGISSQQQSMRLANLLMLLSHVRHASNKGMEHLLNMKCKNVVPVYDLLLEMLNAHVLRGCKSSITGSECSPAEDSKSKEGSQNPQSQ

Compound	Drug metabolism [1]	Drug metabolism [2]	solubility [3] [µM]	IC50 [4] [µM]	Vd [5] [L/kg]	Activity [6] [%]	Tmax [7] [min]	Cmax/dose [8] [nM]	half-life [9] [min]	fEC50 [10] [nM]	fIC20 [11] [nM]	Activity [12] [%]	half-life [13] [min]	clearance [14] [mL/min/kg]	IC50 [15] [µM]	IC50 [16] [µM]	AUC/dose [17] [µM·h]
C[C@H](NC(=O)C(C)(F)F)[C@H](Oc1ccc(C#N)c(Cl)c1)c1ccc(O)nc1	Metabolite_Detected	Metabolite_Detected	–	–	–	–	–	–	–	–	–	–	–	–	–	–	–
C[C@]12C=CC(=O)C=C1CC[C@@H]1[C@@H]2[C@@H](O)C[C@@]2(C)[C@H]1CC[C@]2(O)C(=O)CO [PREDNISOLONE]	–	–	310 (≈ 112 µg/mL)	> 100	1.2	73	16.8	100	150	24	0.88	59	24	90	0.011	> 100	0.094
